Test results: patent US20150094474A1, “AGRICULTURAL CHEMICALS” (Redx Pharma Ltd., priority 2012, published 2015)

Tests used:
barley = assay: Herbicidal bioassay, barley (% necrosis); type: in vivo
Procedure, shortened: (§1)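 Scoring of % necrosis followed EPPO guideline PP1/135 at specified growth intervals, five replicates per species and treatment. Plants at the 2-4 true leaf stage received Potter-tower sprays of DMSO-diluted compounds across six levels from 0.0001% to 0.05%, with water and DMSO controls.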

peas = assay: Herbicidal bioassay, peas (% necrosis); type: in vivo
Procedure, shortened: as §1

CC(=O)OCC(C)Oc1ccc(Oc2ccc(C(F)(F)F)cn2)cc1 (stereo not drawn) [Compound 63, 2-[4-[[5-(Trifluoromethyl)-2-pyridyl]oxy]phenoxy]propyl acetate]
Sum of % necrosis in barley (barley; Dose 0.000001, Day 0): C (less than 50% necrosis) | Sum of % necrosis in barley (barley; Dose 0.000001, Day 1): C (less than 50% necrosis) | Sum of % necrosis in barley (barley; Dose 0.000001, Day 3): C (less than 50% necrosis) | Sum of % necrosis in barley (barley; Dose 0.000001, Day 7): C (less than 50% necrosis) | Sum of % necrosis in barley (barley; Dose 0.000001, Day 10): C (less than 50% necrosis) | Sum of % necrosis in barley (barley; Dose 0.000001, Day 14): C (less than 50% necrosis) | Sum of % necrosis in barley (barley; Dose 0.000001, Day 21): C (less than 50% necrosis) | Sum of % necrosis in barley (barley; Dose 0.000005, Day 0): C (less than 50% necrosis) | Sum of % necrosis in barley (barley; Dose 0.000005, Day 1): C (less than 50% necrosis) | Sum of % necrosis in barley (barley; Dose 0.000005, Day 3): C (less than 50% necrosis) | Sum of % necrosis in barley (barley; Dose 0.000005, Day 7): C (less than 50% necrosis) | Sum of % necrosis in barley (barley; Dose 0.000005, Day 10): C (less than 50% necrosis) | Sum of % necrosis in barley (barley; Dose 0.000005, Day 14): C (less than 50% necrosis) | Sum of % necrosis in barley (barley; Dose 0.000005, Day 21): C (less than 50% necrosis) | Sum of % necrosis in barley (barley; Dose 0.00001, Day 0): C (less than 50% necrosis) | Sum of % necrosis in barley (barley; Dose 0.00001, Day 1): C (less than 50% necrosis) | Sum of % necrosis in barley (barley; Dose 0.00001, Day 3): C (less than 50% necrosis) | Sum of % necrosis in barley (barley; Dose 0.00001, Day 7): C (less than 50% necrosis) | Sum of % necrosis in barley (barley; Dose 0.00001, Day 10): C (less than 50% necrosis) | Sum of % necrosis in barley (barley; Dose 0.00001, Day 14): C (less than 50% necrosis) | Sum of % necrosis in barley (barley; Dose 0.00001, Day 21): C (less than 50% necrosis) | Sum of % necrosis in barley (barley; Dose 0.00005, Day 0): C (less than 50% necrosis) | Sum of % necrosis in barley (barley; Dose 0.00005, Day 1): C (less than 50% necrosis) | Sum of % necrosis in barley (barley; Dose 0.00005, Day 3): C (less than 50% necrosis) | Sum of % necrosis in barley (barley; Dose 0.00005, Day 7): C (less than 50% necrosis) | Sum of % necrosis in barley (barley; Dose 0.00005, Day 10): C (less than 50% necrosis) | Sum of % necrosis in barley (barley; Dose 0.00005, Day 14): B (50%-80% necrosis) | Sum of % necrosis in barley (barley; Dose 0.00005, Day 21): B (50%-80% necrosis) | Sum of % necrosis in barley (barley; Dose 0.0001, Day 0): C (less than 50% necrosis) | Sum of % necrosis in barley (barley; Dose 0.0001, Day 1): C (less than 50% necrosis) | Sum of % necrosis in barley (barley; Dose 0.0001, Day 3): C (less than 50% necrosis) | Sum of % necrosis in barley (barley; Dose 0.0001, Day 7): C (less than 50% necrosis) | Sum of % necrosis in barley (barley; Dose 0.0001, Day 10): C (less than 50% necrosis) | Sum of % necrosis in barley (barley; Dose 0.0001, Day 14): C (less than 50% necrosis) | Sum of % necrosis in barley (barley; Dose 0.0001, Day 21): C (less than 50% necrosis) | Sum of % necrosis in barley (barley; Dose 0.0005, Day 0): C (less than 50% necrosis) | Sum of % necrosis in barley (barley; Dose 0.0005, Day 1): C (less than 50% necrosis) | Sum of % necrosis in barley (barley; Dose 0.0005, Day 3): C (less than 50% necrosis) | Sum of % necrosis in barley (barley; Dose 0.0005, Day 7): C (less than 50% necrosis) | Sum of % necrosis in barley (barley; Dose 0.0005, Day 10): C (less than 50% necrosis) | Sum of % necrosis in barley (barley; Dose 0.0005, Day 14): C (less than 50% necrosis) | Sum of % necrosis in barley (barley; Dose 0.0005, Day 21): C (less than 50% necrosis) | Sum of % necrosis in Peas (peas; Dose 0.000001, Day 0): C (less than 50% necrosis) | Sum of % necrosis in Peas (peas; Dose 0.000001, Day 1): C (less than 50% necrosis) | Sum of % necrosis in Peas (peas; Dose 0.000001, Day 3): C (less than 50% necrosis) | Sum of % necrosis in Peas (peas; Dose 0.000001, Day 7): C (less than 50% necrosis) | Sum of % necrosis in Peas (peas; Dose 0.000001, Day 10): B (50%-80% necrosis) | Sum of % necrosis in Peas (peas; Dose 0.000001, Day 14): B (50%-80% necrosis) | Sum of % necrosis in Peas (peas; Dose 0.000001, Day 21): A (over 80% necrosis) | Sum of % necrosis in Peas (peas; Dose 0.000005, Day 0): C (less than 50% necrosis) | Sum of % necrosis in Peas (peas; Dose 0.000005, Day 1): C (less than 50% necrosis) | Sum of % necrosis in Peas (peas; Dose 0.000005, Day 3): C (less than 50% necrosis) | Sum of % necrosis in Peas (peas; Dose 0.000005, Day 7): C (less than 50% necrosis) | Sum of % necrosis in Peas (peas; Dose 0.000005, Day 10): B (50%-80% necrosis) | Sum of % necrosis in Peas (peas; Dose 0.000005, Day 14): B (50%-80% necrosis) | Sum of % necrosis in Peas (peas; Dose 0.000005, Day 21): A (over 80% necrosis) | Sum of % necrosis in Peas (peas; Dose 0.00001, Day 0): C (less than 50% necrosis) | Sum of % necrosis in Peas (peas; Dose 0.00001, Day 1): C (less than 50% necrosis) | Sum of % necrosis in Peas (peas; Dose 0.00001, Day 3): C (less than 50% necrosis) | Sum of % necrosis in Peas (peas; Dose 0.00001, Day 7): C (less than 50% necrosis) | Sum of % necrosis in Peas (peas; Dose 0.00001, Day 10): B (50%-80% necrosis) | Sum of % necrosis in Peas (peas; Dose 0.00001, Day 14): B (50%-80% necrosis) | Sum of % necrosis in Peas (peas; Dose 0.00001, Day 21): A (over 80% necrosis) | Sum of % necrosis in Peas (peas; Dose 0.00005, Day 0): C (less than 50% necrosis) | Sum of % necrosis in Peas (peas; Dose 0.00005, Day 1): C (less than 50% necrosis) | Sum of % necrosis in Peas (peas; Dose 0.00005, Day 3): C (less than 50% necrosis) | Sum of % necrosis in Peas (peas; Dose 0.00005, Day 7): B (50%-80% necrosis) | Sum of % necrosis in Peas (peas; Dose 0.00005, Day 10): A (over 80% necrosis) | Sum of % necrosis in Peas (peas; Dose 0.00005, Day 14): A (over 80% necrosis) | Sum of % necrosis in Peas (peas; Dose 0.00005, Day 21): A (over 80% necrosis) | Sum of % necrosis in Peas (peas; Dose 0.0001, Day 0): C (less than 50% necrosis) | Sum of % necrosis in Peas (peas; Dose 0.0001, Day 1): C (less than 50% necrosis) | Sum of % necrosis in Peas (peas; Dose 0.0001, Day 3): C (less than 50% necrosis) | Sum of % necrosis in Peas (peas; Dose 0.0001, Day 7): C (less than 50% necrosis) | Sum of % necrosis in Peas (peas; Dose 0.0001, Day 10): C (less than 50% necrosis) | Sum of % necrosis in Peas (peas; Dose 0.0001, Day 14): B (50%-80% necrosis) | Sum of % necrosis in Peas (peas; Dose 0.0001, Day 21): B (50%-80% necrosis) | Sum of % necrosis in Peas (peas; Dose 0.0005, Day 0): C (less than 50% necrosis) | Sum of % necrosis in Peas (peas; Dose 0.0005, Day 1): C (less than 50% necrosis) | Sum of % necrosis in Peas (peas; Dose 0.0005, Day 3): C (less than 50% necrosis) | Sum of % necrosis in Peas (peas; Dose 0.0005, Day 7): C (less than 50% necrosis) | Sum of % necrosis in Peas (peas; Dose 0.0005, Day 10): B (50%-80% necrosis) | Sum of % necrosis in Peas (peas; Dose 0.0005, Day 14): B (50%-80% necrosis) | Sum of % necrosis in Peas (peas; Dose 0.0005, Day 21): B (50%-80% necrosis)
